Results as given in patent publication US9868739B2, “Salt(s) of 7-cyclopentyl-2-(5-piperazin-1-yl-pyridin-2-ylamino)-7H-pyrrolo[2,3-d]pyrimidine-6-carboxylic acid dimethylamide and processes of making thereof” (Novartis AG, priority 2010, dated 2018).

Key:
[1] = Dynamic Vapor Sorption (DVS), moisture cycles 0-90-0% RH; type: physicochemical
[2] = Dynamic Vapor Sorption (DVS), moisture cycle 0-80-0% RH; type: physicochemical
physchem = details: water

## CN(C)C(=O)c1cc2cnc(Nc3ccc(N4CCNCC4)cn3)nc2n1C1CCCC1.O=C(O)CCC(=O)O [Compound of Formula (II), 7-Cyclopentyl-N,N-dimethyl-2-(5-(piperazin-1-yl)pyridin-2-ylamino)-7H-pyrrolo[2,3-d]pyrimidine-6-carboxamide succinate]
[1]; at 90% RH, in each cycle (0 to 90 to 0% RH, two cycles)
  moisture absorbed: up to 2%
[1]; upon exposure to 90% RH (XRPD, DSC, TGA)
  physical form after exposure: change in physical form
[2]; Cycle 1, target RH 50.0%
  Change In Mass (%) Hysteresis: 0.0074%
[2]; Cycle 1, target RH 60.0%
  Change In Mass (%) Hysteresis: 0.0140%
[2]; Cycle 1, target RH 80.0%
  Change In Mass (%) Desorption: 0.5200%
[2]; at 80% RH (0 to 80 to 0% RH cycle)
  moisture absorbed: up to 0.5%
[2]; upon exposure to 80% RH (XRPD)
  physical form after exposure: stability of the physical form

## CN(C)C(=O)c1cc2cnc(Nc3ccc(N4CCNCC4)cn3)nc2n1C1CCCC1.O=C(O)CCC(=O)O [hydrate form, succinate salt of 7-Cyclopentyl-2-(5-piperazin-1-yl-pyridin-2-ylamino)-7H-pyrrolo[2,3-d]pyrimidine-6-carboxylic acid dimethylamide]
physchem; solubility
  solubility: < 0.5 mg/mL

## CN(C)C(=O)c1cc2cnc(Nc3ccc(N4CCNCC4)cn3)nc2n1C1CCCC1.O=C(O)CCC(=O)O [non-hydrate form, succinate salt of 7-Cyclopentyl-2-(5-piperazin-1-yl-pyridin-2-ylamino)-7H-pyrrolo[2,3-d]pyrimidine-6-caboxylic acid dimethylamide]
physchem; solubility in water
  solubility: ~30 mg/mL
